# “And” between values parts separate entries of the source, which are not always exact repeats. Equal values may be shown once.
# Tested on: serum uric acid
# Test: Single-dose Phase I clinical trial, serum uric acid (sUA) 0-72 hours post-dose
# Assay type: in vivo, human
# Conditions: for Absolute sUA concentration, Mean (3-8) / % sUA reduction (from baseline), Mean (3-8) / % sUA change (from baseline), Mean (3-8): mean of subjects 3-8; for % sUA reduction (from baseline) / % sUA change (from baseline): individual subjects 3-8
# Protocol: A Phase 1, Randomized, Double-Blind, Placebo-Controlled Study to Evaluate Safety, Tolerability, Pharmacokinetics and Preliminary Food Effect of Single Doses of a URAT1 Inhibitor, in Healthy Adult Male Volunteers.
# To assess safety, tolerability, pharmacokinetics and uricosuric effects after oral administration as single doses of a tablet formulation and the effect of food on bioavailability.
# Subjects receive a single, oral dose of active or placebo, at the following doses:
# Group 4: 20 mg (fasted) [sentinel dosing];
# 48 subjects in 6 dose groups, 8 subjects/group, are randomized 3:1 to receive active (6/group) or placebo (2/group). All study procedures are the same regardless of whether subject receives active or placebo. The total duration of subject participation, including screening period, is ˜2-4 weeks, and the total volume of blood collected from each subject during the entire study <500 mL, (less than typically collected during a volunteer blood donation).
# 5 mg and 20 mg, active and placebo, tablets packaged in 35 count HDPE bottles, stored at controlled room temperature (15-30° C.). Placebo tablets are designed to match the active tablets—identical size, form, taste, and color, and containing the same excipients. 2 mg was dosed as an oral solution.
# Subjects dosed on the morning of Day 1 with ˜240 mL of room temp water.
# Fasted: subjects are dosed after overnight fast >10 hours and remain fasted until >4 hours post-dose.
# Fed: subjects fast overnight for >10 hours, then are dosed 30 mins after completing standard moderate fat breakfast (no high fructose corn syrup).
# Serum samples are collected at:
# PD samples are frozen (−20° C.) and stored; all samples from a given subject assayed in a single analytical run.
# [1] = Group 3, 5 mg single oral dose, fed, 54 h post-dose
# [2] = Group 3, 5 mg single oral dose, fed, 60 h post-dose
# [3] = Group 3, 5 mg single oral dose, fed, 72 h post-dose
# [4] = Group 4, 20 mg single oral dose, fasted, 0 h (baseline)
# [5] = Group 4, 20 mg single oral dose, fasted, 6 h post-dose
# [6] = Group 4, 20 mg single oral dose, fasted, 12 h post-dose
# [7] = Group 4, 20 mg single oral dose, fasted, 24 h post-dose
# [8] = Group 4, 20 mg single oral dose, fasted, 30 h post-dose
# [9] = Group 4, 20 mg single oral dose, fasted, 36 h post-dose
# [10] = Group 4, 20 mg single oral dose, fasted, 48 h post-dose
# [11] = Group 4, 20 mg single oral dose, fasted, 54 h post-dose
# [12] = Group 4, 20 mg single oral dose, fasted, 60 h post-dose
# [13] = Group 4, 20 mg single oral dose, fasted, 72 h post-dose
# [14] = Group 5, 20 mg single oral dose, fed, 0 h (baseline)
# [15] = Group 5, 20 mg single oral dose, fed, 6 h post-dose
# [16] = Group 5, 20 mg single oral dose, fed, 12 h post-dose
# [17] = Group 5, 20 mg single oral dose, fed, 24 h post-dose
# [18] = Group 5, 20 mg single oral dose, fed, 30 h post-dose
# [19] = Group 5, 20 mg single oral dose, fed, 36 h post-dose
# [20] = Group 5, 20 mg single oral dose, fed, 48 h post-dose
# [21] = Group 5, 20 mg single oral dose, fed, 54 h post-dose
# [22] = Group 5, 20 mg single oral dose, fed, 60 h post-dose
# [23] = Group 5, 20 mg single oral dose, fed, 72 h post-dose
# [24] = Group 6, 40 mg single oral dose, fasted, 0 h (baseline)
# [25] = Group 6, 40 mg single oral dose, fasted, 6 h post-dose
# [26] = Group 6, 40 mg single oral dose, fasted, 12 h post-dose
# [27] = Group 6, 40 mg single oral dose, fasted, 24 h post-dose
# [28] = Group 6, 40 mg single oral dose, fasted, 30 h post-dose
# [29] = Group 6, 40 mg single oral dose, fasted, 36 h post-dose
# [30] = Group 6, 40 mg single oral dose, fasted, 48 h post-dose
# [31] = Group 6, 40 mg single oral dose, fasted, 54 h post-dose
# [32] = Group 6, 40 mg single oral dose, fasted, 60 h post-dose
# [33] = Group 6, 40 mg single oral dose, fasted, 72 h post-dose
compound,measurement,setting,value
CC(C)(Sc1ccncc1-c1ccc(C#N)c2ccccc12)C(=O)O [2-((3-(4-cyanonaphthalen-1-yl)pyridin-4-yl)thio)-2-methylpropanoic acid],"Absolute sUA concentration, Mean (3-8)","Group 3, 5 mg single oral dose, fed, 48 h post-dose",4.5 mg/dL
same,% sUA reduction (from baseline),[1],−37.7% and −47.0% and −27.7% and −38.3% and −21.1% and −32.5%
same,"% sUA reduction (from baseline), Mean (3-8)",[1],−34.1%
same,"Absolute sUA concentration, Mean (3-8)",[1],3.9 mg/dL
same,% sUA reduction (from baseline),[2],−27.5% and −28.8% and −30.8% and −20.0% and −24.6% and −35.0%
same,"% sUA reduction (from baseline), Mean (3-8)",[2],−27.8%
same,"Absolute sUA concentration, Mean (3-8)",[2],4.3 mg/dL
same,% sUA reduction (from baseline),[3],−14.5% and −18.2% and −20.0% and −11.7% and −15.8% and −25.0%
same,"% sUA reduction (from baseline), Mean (3-8)",[3],−17.5%
same,"Absolute sUA concentration, Mean (3-8)",[3],4.9 mg/dL
same,"% sUA reduction (from baseline), Mean (3-8)",[4],0%
same,"Absolute sUA concentration, Mean (3-8)",[4],6.8 mg/dL
same,"% sUA reduction (from baseline), Mean (3-8)",[5],−37.1%
same,"Absolute sUA concentration, Mean (3-8)",[5],4.3 mg/dL
same,"% sUA reduction (from baseline), Mean (3-8)",[6],−41.2%
same,"Absolute sUA concentration, Mean (3-8)",[6],4.0 mg/dL
same,"% sUA reduction (from baseline), Mean (3-8)",[7],−43.1%
same,"Absolute sUA concentration, Mean (3-8)",[7],3.8 mg/dL
same,"% sUA reduction (from baseline), Mean (3-8)",[8],−47.4%
same,"Absolute sUA concentration, Mean (3-8)",[8],3.6 mg/dL
same,"% sUA reduction (from baseline), Mean (3-8)",[9],−48.4%
same,"Absolute sUA concentration, Mean (3-8)",[9],3.5 mg/dL
same,"% sUA reduction (from baseline), Mean (3-8)",[10],−39.0%
same,"Absolute sUA concentration, Mean (3-8)",[10],4.1 mg/dL
same,"% sUA reduction (from baseline), Mean (3-8)",[11],−37.6%
same,"Absolute sUA concentration, Mean (3-8)",[11],4.2 mg/dL
same,"% sUA reduction (from baseline), Mean (3-8)",[12],−37.6%
same,"Absolute sUA concentration, Mean (3-8)",[12],4.2 mg/dL
same,"% sUA reduction (from baseline), Mean (3-8)",[13],−21.5%
same,"Absolute sUA concentration, Mean (3-8)",[13],5.3 mg/dL
same,"% sUA reduction (from baseline), Mean (3-8)",[14],0%
same,"Absolute sUA concentration, Mean (3-8)",[14],7.1 mg/dL
same,"% sUA reduction (from baseline), Mean (3-8)",[15],−44.6%
same,"Absolute sUA concentration, Mean (3-8)",[15],3.9 mg/dL
same,"% sUA reduction (from baseline), Mean (3-8)",[16],−56.5%
same,"Absolute sUA concentration, Mean (3-8)",[16],3.1 mg/dL
same,"% sUA reduction (from baseline), Mean (3-8)",[17],−46.1%
same,"Absolute sUA concentration, Mean (3-8)",[17],3.8 mg/dL
same,"% sUA reduction (from baseline), Mean (3-8)",[18],−48%
same,"Absolute sUA concentration, Mean (3-8)",[18],3.7 mg/dL
same,"% sUA reduction (from baseline), Mean (3-8)",[19],−49.9%
same,"Absolute sUA concentration, Mean (3-8)",[19],3.5 mg/dL
same,"% sUA reduction (from baseline), Mean (3-8)",[20],−37.6%
same,"Absolute sUA concentration, Mean (3-8)",[20],4.4 mg/dL
same,"% sUA reduction (from baseline), Mean (3-8)",[21],−38.8%
same,"Absolute sUA concentration, Mean (3-8)",[21],4.3 mg/dL
same,"% sUA reduction (from baseline), Mean (3-8)",[22],−40.3%
same,"Absolute sUA concentration, Mean (3-8)",[22],4.2 mg/dL
same,"% sUA reduction (from baseline), Mean (3-8)",[23],−28.6%
same,"Absolute sUA concentration, Mean (3-8)",[23],5.0 mg/dL
same,% sUA change (from baseline),[24],0%
same,"% sUA change (from baseline), Mean (3-8)",[24],0%
same,"Absolute sUA concentration, Mean (3-8)",[24],6.6 mg/dL
same,% sUA change (from baseline),[25],−23.7% and −51.4% and −38.2% and −54.1% and −49.2% and −42.1%
same,"% sUA change (from baseline), Mean (3-8)",[25],−43.1%
same,"Absolute sUA concentration, Mean (3-8)",[25],3.8 mg/dL
same,% sUA change (from baseline),[26],−40.8% and −68.9% and −52.9% and −63.9%
same,"% sUA change (from baseline), Mean (3-8)",[26],−59.3%
same,"Absolute sUA concentration, Mean (3-8)",[26],2.7 mg/dL
same,"% sUA change (from baseline), Mean (3-8)",[27],−57.6%
same,"Absolute sUA concentration, Mean (3-8)",[27],2.8 mg/dL
same,"% sUA change (from baseline), Mean (3-8)",[28],−60.6%
same,"Absolute sUA concentration, Mean (3-8)",[28],2.6 mg/dL
same,"% sUA change (from baseline), Mean (3-8)",[29],−61.4%
same,"Absolute sUA concentration, Mean (3-8)",[29],2.5 mg/dL
same,% sUA change (from baseline),[30],−53.9% and −50.0% and −48.5% and −37.7% and −55.9% and −45.6%
same,"% sUA change (from baseline), Mean (3-8)",[30],−48.6%
same,"Absolute sUA concentration, Mean (3-8)",[30],3.4 mg/dL
same,% sUA change (from baseline),[31],−56.6% and −47.3% and −50.0% and −39.3% and −54.2% and −40.4%
same,"% sUA change (from baseline), Mean (3-8)",[31],−48.0%
same,"Absolute sUA concentration, Mean (3-8)",[31],3.4 mg/dL
same,% sUA change (from baseline),[32],−56.6% and −50.0% and −48.5% and −39.3% and −52.5% and −36.8%
same,"% sUA change (from baseline), Mean (3-8)",[32],−47.3%
same,"Absolute sUA concentration, Mean (3-8)",[32],3.4 mg/dL
same,% sUA change (from baseline),[33],−40.8% and −31.1% and −33.8% and −19.7% and −30.5% and −19.3%
same,"% sUA change (from baseline), Mean (3-8)",[33],−29.2%
same,"Absolute sUA concentration, Mean (3-8)",[33],4.6 mg/dL
